# Tested on: skin of human volunteers
# Experiment: Human Repeat Insult Patch Test (HRIPT), skin irritation and sensitization
# Type: in vivo
# Conditions: positive control, study of Example 28, 51 subjects completing
# Excerpt: Prior to utilizing in-vivo efficacy testing, however, it must first be determined that application of the product onto the skin of human volunteers will not cause them to experience an allergic reaction or some form of painful irritation. This is done by performing what is known as a Human Repeat Insult Patch Test (HRIPT). This is an internationally recognized test used to determine the potential for irritation, sensitization, and allergic reaction potential of a product. In view of the growing number of exotic ingredients used in skin care formulations, coupled with the increasingly complex and sophisticated chemical composition of the formulas, the risk of individuals experiencing irritation and allergic reactions because of their use has increased substantially. […] Any allergic reactions experienced by the test subject will be observed, recorded, and evaluated by a dermatologist to confirm, or not, the safety of the product. […]
# Each HRIPT included about 50 subjects. In addition to demographic data collected for each subject, a Fitzpatrick Skin Type was also determined. […]
# This procedure was repeated until a series of 9 consecutive, 24-hour exposures had been made 3 times a week for three 3 consecutive weeks. Prior to each reapplication, the test sites evaluated by trained laboratory personnel. […]
smiles,measurement,value
"CCCCCCCCCCCCOS(=O)(=O)[O-].[Na+] [2.0% Sodium Lauryl Sulfate Solution, Sodium Lauryl Sulfate]",number of subjects with a Grade 1 reaction in HRIPT,4 subjects
same,number of subjects with a Grade 3 reaction in HRIPT,one
